Data reported in PubChem BioAssay (NCI).
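Growth conditions: 96-well plates. Treatment: test compound, 48 hours, 5 concentrations. Analysis: linear interpolation between bracketing concentrations; unreached endpoints set to highest concentration. GI50: concentration for 50% inhibition of growth. TGI denotes the concentration required for complete inhibition of growth.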

Tests used:
Experiment in all cases: inhibition of tumour cell growth, NCI panel, 48 h
A498 renal = test system: A498 renal
ACHN renal = test system: ACHN renal
BT-549 breast = test system: BT-549 breast
DU-145 prostate = test system: DU-145 prostate
LOX IMVI melanoma = test system: LOX IMVI melanoma
MCF7 breast = test system: MCF7 breast
NCI-H226 lung = test system: NCI-H226 lung
NCI/ADR-RES ovarian = test system: NCI/ADR-RES ovarian
OVCAR-3 ovarian = test system: OVCAR-3 ovarian
OVCAR-8 ovarian = test system: OVCAR-8 ovarian

SMILES | GI50 (A498 renal) [µM] | TGI (A498 renal) [µM] | GI50 (ACHN renal) [µM] | TGI (ACHN renal) [µM] | GI50 (BT-549 breast) [µM] | TGI (BT-549 breast) [µM] | GI50 (DU-145 prostate) [µM] | TGI (DU-145 prostate) [µM] | GI50 (LOX IMVI melanoma) [µM] | TGI (LOX IMVI melanoma) [µM] | GI50 (MCF7 breast) [µM] | TGI (MCF7 breast) [µM] | GI50 (NCI-H226 lung) [µM] | TGI (NCI-H226 lung) [µM] | GI50 (NCI/ADR-RES ovarian) [µM] | TGI (NCI/ADR-RES ovarian) [µM] | GI50 (OVCAR-3 ovarian) [µM] | TGI (OVCAR-3 ovarian) [µM] | GI50 (OVCAR-8 ovarian) [µM] | TGI (OVCAR-8 ovarian) [µM]
CC(C)n1c(=O)n(C)c2cnc3cc(F)c(-c4ccc(OCCCN5CCCCC5)nc4)cc3c21 | 3.78 | 14 | 16.2 | 76.8 | 10.1 | 28.4 | 17.7 | > 100 | 4.13 | 16.6 | 7.46 | 21.6 | 4.99 | 24.4 | 12.4 | 81.3 | 13.7 | 49.5 | 14.9 | > 100
COc1ccc(OC)c(/C=C2\COc3ccc(O)c(O)c3C2=O)c1 | 11.2 | 23.6 | 1.84 | 3.97 | 1.71 | 6.71 | 2.27 | 7.28 | 1.48 | 3.02 | 1.2 | 14.4 | 6.76 | 36.8 | 2.51 | 10.9 | 1.36 | 5.31 | 3.05 | 27
O=C(Cc1ccccc1)NC(c1ccc(Cl)cc1)c1c(O)ccc2ccccc12 (stereo not given) | 0.985 | 7.72 | 2.55 | 6.9 | 3.8 | 12.8 | 4.68 | 17 | 3.11 | 9.71 | 2.66 | 9.37 | 3.15 | 12 | 3.41 | 11.5 | 2.97 | 7.64 | 3.56 | 16.9
NC1=CC(=O)c2nc3ccccc3c3ccnc1c23 | 6.19 | 40.8 | 3.15 | 33 | 6.9 | 27.9 | 0.495 | > 44.6 | 0.219 | 4.22 | 1.29 | > 100 | 0.937 | > 32.6 | 7.33 | 69.4 | 3.6 | > 51.9 | 2.39 | 18.5
CSC1=Nc2c(c(C)c(C)n2COC(CO)CO)C2=NC(=O)CC(C)N12 (stereo not given) | > 100 | > 100 | > 100 | > 100 | > 100 | > 100 | > 100 | > 100 | > 100 | > 100 | > 100 | > 100 | > 100 | > 100 | > 100 | > 100 | > 100 | > 100 | > 100 | > 100
O=C(O)CP(=O)(O)O | – | > 100 | – | > 100 | – | > 100 | – | > 100 | – | > 100 | – | > 100 | – | > 100 | – | > 100 | – | > 100 | – | > 100
N#Cc1c(N)nc(NCc2ccccc2)c(C#N)c1-c1ccccc1Cl | 19.2 | 46.9 | 5.73 | 62.7 | 16.7 | 53.9 | 21.5 | 88.6 | 4.75 | 35.9 | 20 | > 100 | 2.39 | 14.5 | 37.1 | > 100 | 18.4 | 49.7 | 11.4 | > 100
CC1(C)N=C(N)N=C(N)N1c1cccc(CCCCOc2ccccc2)c1 | 1.8 | > 81.3 | 3.85 | > 100 | 1.15 | 16.8 | 0.0626 | > 100 | 0.0395 | 14.7 | 0.05 | 17.5 | 0.801 | > 100 | > 100 | > 100 | 0.547 | 21 | 0.465 | > 100
C=CC[C@@H]1/C=C(\C)C[C@H](C)C[C@H](OC)[C@H]2O[C@@](O)(C(=O)C(=O)N3CCCC[C@H]3C(=O)O[C@H](/C(C)=C/C3CC[C@@H](O)[C@H](OC)C3)[C@H](C)[C@@H](O)CC1=O)[C@H](C)C[C@@H]2OC (stereo not given in full) | 9.95 | 24.3 | 15.4 | 29.5 | 10 | 27.2 | 16.1 | 30.2 | 15 | 29.7 | 13.8 | 29 | 15.3 | 30.1 | 15 | 35.3 | 14.2 | 27.2 | 16 | 39.3
CCC(c1ccc2cc(O)ccc2c1)C(C)(C)C(=O)O (stereo not given) | – | > 100 | – | > 100 | – | > 100 | – | > 100 | – | > 100 | – | > 100 | – | > 100 | – | > 100 | – | > 100 | – | > 100
Brc1ccccc1C=NC12CC3CC(CC(C3)C1)C2 | – | > 100 | – | > 100 | – | > 100 | – | > 100 | – | > 100 | – | > 100 | – | > 100 | – | > 100 | – | > 100 | – | > 100
CC(=O)OC1Oc2cc(C)c(C)cc2-c2oc(=O)c(-c3ccc(F)cc3)cc21 (stereo not given) | 5.06 | 67.4 | 11.9 | > 100 | 7.76 | 45.9 | 10.3 | 77.7 | 5.61 | > 100 | 3.08 | 20.1 | 12.9 | > 100 | 2.86 | 9.34 | 3.99 | 16.6 | 6.67 | > 100
N=c1n(Cc2ccccc2)c(N)cc(=O)n1Cc1ccccc1 | 5.04 | 47.5 | 0.747 | 5.25 | 2.65 | 10.3 | 2.28 | 6.47 | 3.14 | 10.9 | 2.73 | 18.4 | 3.45 | 9.56 | 2.33 | 5.71 | 3.34 | 8.43 | 3.18 | 11.4
S=C(c1ccc2c(c1)OCO2)N1CCN(c2cccc(Cl)c2)CC1 | 0.424 | 12.8 | 13.4 | > 100 | 9.32 | > 100 | 2.16 | > 55.1 | 1.14 | > 100 | 0.471 | > 100 | 14 | > 100 | 0.635 | > 100 | 0.338 | 1.23 | 0.975 | 7.21
Cc1[nH]nc2ccc3nc(-c4ccc5[nH]ncc5c4)c4c(c3c12)CCCC4 | 0.28 | 1.8 | 0.367 | 12.9 | 1.1 | 8.8 | 1.05 | 12.2 | 1.22 | 11 | 3.54 | 17.1 | 1.89 | 10.8 | 2.4 | 15.8 | 2.07 | 10.6 | 1.15 | 13.2
Nc1ccc(-c2nc3ccccc3o2)cc1S | 28.3 | 70.6 | 12.1 | 24.4 | 23.6 | 49.8 | 19.9 | 55.3 | 12.3 | 24.8 | 12.1 | 38.3 | 11.8 | 30.4 | 24.9 | 65.2 | 15.8 | 31 | 20.3 | 58
CNC(=O)NC(CCCCNC(=O)OCc1ccccc1)C(=O)OCc1ccccc1 (stereo not given) | – | 71.4 | – | > 100 | – | > 100 | – | > 100 | – | > 78.2 | – | > 100 | – | > 88.6 | – | > 100 | – | 57.9 | – | > 87.5
COc1cc(-n2cnc(-c3ccc(Cl)cc3)c2)cc(OC)c1OC | 14.2 | 31.6 | 19.8 | 57.3 | 16.7 | 31.3 | > 100 | > 100 | 18 | 34.3 | 17.9 | 34.7 | > 100 | > 100 | 16.9 | 45.1 | > 100 | > 100 | > 100 | > 100
O=C1/C(=C/c2ccccc2F)CN(C(=O)C(Cl)Cl)C/C1=C\c1ccccc1F | 1.54 | 3.14 | 0.327 | 1.09 | 0.422 | 1.44 | 1.01 | 2.35 | 0.11 | 0.297 | 0.101 | 0.983 | 1.4 | 6.85 | 0.342 | 2.64 | 0.319 | 1.02 | 0.313 | 1.11
